Measurements as given in ChEMBL document CHEMBL1201862, “PubChem BioAssay data set” (2004).
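Grown in 96-well plates, cells were treated for 48 hours with each compound at five concentrations. Insufficient inhibition: endpoint recorded as highest concentration tested. GI50 = concentration required for 50% inhibition of growth.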 Activity calls are given as the source filed them. Cut-off read from the data, not from the text of the source: active = GI50 up to about 1.1 µM and inactive = higher.

Assays:
Experiment in all cases: inhibition of tumour cell growth, NCI panel, 48 h
[1] = tested on: 786-0
[2] = tested on: A498
[3] = tested on: A549
[4] = tested on: ACHN
[5] = tested on: BT-549
[6] = tested on: CAKI-1
[7] = tested on: CCRF-CEM
[8] = tested on: COLO 205
[9] = tested on: DU-145
[10] = tested on: EKVX
[11] = tested on: HCC 2998
[12] = tested on: HCT-116
[13] = tested on: HCT-15
[14] = tested on: HL-60
[15] = tested on: HOP-62
[16] = tested on: HOP-92
[17] = tested on: HT-29
[18] = tested on: IGROV-1
[19] = tested on: K562
[20] = tested on: KM12
[21] = tested on: LOX IMVI
[22] = tested on: M14
[23] = tested on: MCF7
[24] = tested on: MDA-MB-231
[25] = tested on: MDA-MB-435
[26] = tested on: MDA-N
[27] = tested on: MOLT-4
[28] = tested on: Malme-3M
[29] = tested on: NCI-H226
[30] = tested on: NCI-H23
[31] = tested on: NCI-H460
[32] = tested on: NCI/ADR-RES
[33] = tested on: OVCAR-3
[34] = tested on: OVCAR-4
[35] = tested on: OVCAR-5
[36] = tested on: OVCAR-8
[37] = tested on: PC-3
[38] = tested on: RPMI-8226
[39] = tested on: RXF 393
[40] = tested on: SF-268
[41] = tested on: SF-295
[42] = tested on: SF-539
[43] = tested on: SK-MEL-28
[44] = tested on: SK-MEL-2
[45] = tested on: SK-MEL-5
[46] = tested on: SK-OV-3
[47] = tested on: SN12C
[48] = tested on: SNB-19
[49] = tested on: SNB-75
[50] = tested on: SW-620
[51] = tested on: T47D
[52] = tested on: TK-10
[53] = tested on: U-251
[54] = tested on: UACC-257
[55] = tested on: UACC-62
[56] = tested on: Hs-578T
[57] = tested on: NCI-H522
[58] = tested on: SR
[59] = tested on: UO-31

N#CC(=S)Nc1cccc(Cl)c1
GI50 [1]: 40.5 µM (inactive) | GI50 [2]: 34.1 µM (inactive) | GI50 [3]: 23.8 µM (inactive) | GI50 [4]: 26.2 µM (inactive) | GI50 [5]: 35.5 µM (inactive) | GI50 [6]: 41.9 µM (inactive) | GI50 [7]: 30 µM (inactive) | GI50 [8]: 36.1 µM (inactive) | GI50 [9]: 50.8 µM (inactive) | GI50 [10]: 41.1 µM (inactive) | GI50 [11]: 28.8 µM (inactive) | GI50 [12]: 55.3 µM (inactive) | GI50 [13]: 27.9 µM | GI50 [14]: 33.2 µM (inactive) | GI50 [15]: 43.8 µM (inactive) | GI50 [16]: 35.6 µM (inactive) | GI50 [17]: 19.5 µM (inactive) | GI50 [18]: 5.13 µM (inactive) | GI50 [19]: 19.5 µM (inactive) | GI50 [20]: 24.8 µM (inactive) | GI50 [21]: 39.3 µM (inactive) | GI50 [22]: 27.5 µM (inactive) | GI50 [23]: 46.8 µM (inactive) | GI50 [24]: 38.4 µM (inactive) | GI50 [25]: 33.1 µM (inactive) | GI50 [26]: 44.3 µM (inactive) | GI50 [27]: 34 µM (inactive) | GI50 [28]: 30.3 µM (inactive) | GI50 [29]: 23.9 µM (inactive) | GI50 [30]: 31.4 µM (inactive) | GI50 [31]: 19.9 µM (inactive) | GI50 [32]: 30.7 µM (inactive) | GI50 [33]: 16 µM (inactive) | GI50 [34]: 42.4 µM (inactive) | GI50 [35]: 28.5 µM (inactive) | GI50 [36]: 32.3 µM (inactive) | GI50 [37]: 32.7 µM (inactive) | GI50 [38]: 5.38 µM (inactive) | GI50 [39]: 26 µM (inactive) | GI50 [40]: 40.5 µM (inactive) | GI50 [41]: 23.8 µM (inactive) | GI50 [42]: 25.9 µM (inactive) | GI50 [43]: 44.7 µM (inactive) | GI50 [44]: 26.5 µM (inactive) | GI50 [45]: 4.11 µM (inactive) | GI50 [46]: 33.3 µM (inactive) | GI50 [47]: 44.1 µM (inactive) | GI50 [48]: 54.5 µM (inactive) | GI50 [49]: 23.9 µM (inactive) | GI50 [50]: 53.2 µM (inactive) | GI50 [51]: 27.2 µM (inactive) | GI50 [52]: 35.4 µM (inactive) | GI50 [53]: 34.8 µM (inactive) | GI50 [54]: 37.2 µM (inactive) | GI50 [55]: 19 µM (inactive)

Cc1cc2c(cc1C)[n+]([O-])c(NCCCN(C)C)c(C#N)[n+]2[O-]
GI50 [1]: > 100 µM (inactive) | GI50 [2]: > 100 µM (inactive) | GI50 [3]: > 100 µM (inactive) | GI50 [4]: > 100 µM (inactive) | GI50 [5]: 79.1 µM (inactive) | GI50 [6]: 72.1 µM (inactive) | GI50 [7]: 57.3 µM (inactive) | GI50 [10]: 68.5 µM (inactive) | GI50 [11]: 88.3 µM (inactive) | GI50 [12]: 73.3 µM (inactive) | GI50 [13]: 75.2 µM | GI50 [14]: 45.3 µM (inactive) | GI50 [15]: > 100 µM (inactive) | GI50 [16]: > 100 µM (inactive) | GI50 [17]: 61.5 µM (inactive) | GI50 [56]: > 100 µM (inactive) | GI50 [18]: 35.5 µM (inactive) | GI50 [19]: 37.5 µM (inactive) | GI50 [20]: > 100 µM (inactive) | GI50 [21]: > 100 µM (inactive) | GI50 [22]: > 100 µM (inactive) | GI50 [23]: > 100 µM (inactive) | GI50 [25]: > 100 µM (inactive) | GI50 [26]: > 100 µM (inactive) | GI50 [27]: 22.7 µM (inactive) | GI50 [28]: 95.1 µM (inactive) | GI50 [29]: 67 µM (inactive) | GI50 [30]: 80.9 µM (inactive) | GI50 [31]: 26.2 µM (inactive) | GI50 [57]: 57.4 µM (inactive) | GI50 [32]: 85.1 µM (inactive) | GI50 [33]: 76.4 µM (inactive) | GI50 [34]: > 100 µM (inactive) | GI50 [35]: > 100 µM (inactive) | GI50 [36]: > 100 µM (inactive) | GI50 [37]: > 100 µM (inactive) | GI50 [38]: 16.1 µM (inactive) | GI50 [39]: > 100 µM (inactive) | GI50 [40]: > 100 µM (inactive) | GI50 [41]: 42 µM (inactive) | GI50 [42]: > 100 µM (inactive) | GI50 [43]: > 100 µM (inactive) | GI50 [44]: > 100 µM (inactive) | GI50 [46]: 81.5 µM (inactive) | GI50 [47]: 82.4 µM (inactive) | GI50 [48]: > 100 µM (inactive) | GI50 [49]: 85.7 µM (inactive) | GI50 [58]: 13.2 µM (inactive) | GI50 [50]: > 100 µM (inactive) | GI50 [52]: > 100 µM (inactive) | GI50 [53]: > 100 µM (inactive) | GI50 [54]: > 100 µM (inactive) | GI50 [55]: 76.4 µM (inactive) | GI50 [59]: > 100 µM (inactive)

CN(C)CCNC(=O)c1cccc2c(NC(CS)C(=O)O)c3ccccc3[n+](C)c12 (stereo unspecified)
GI50 [1]: 69.2 µM (inactive) | GI50 [2]: 77.4 µM (inactive) | GI50 [3]: 62.1 µM (inactive) | GI50 [4]: 35.5 µM (inactive) | GI50 [5]: 35.6 µM (inactive) | GI50 [8]: 43.9 µM (inactive) | GI50 [9]: 37.6 µM (inactive) | GI50 [10]: 56.9 µM (inactive) | GI50 [11]: 50 µM (inactive) | GI50 [12]: 41.1 µM (inactive) | GI50 [13]: > 100 µM | GI50 [15]: 60.8 µM (inactive) | GI50 [17]: 99.3 µM (inactive) | GI50 [56]: > 100 µM (inactive) | GI50 [18]: 43.8 µM (inactive) | GI50 [19]: 87.9 µM (inactive) | GI50 [20]: > 100 µM (inactive) | GI50 [21]: 32.8 µM (inactive) | GI50 [22]: > 100 µM (inactive) | GI50 [23]: 95.5 µM (inactive) | GI50 [24]: 41.4 µM (inactive) | GI50 [25]: 68.5 µM (inactive) | GI50 [27]: 41.9 µM (inactive) | GI50 [28]: 30.2 µM (inactive) | GI50 [30]: 89.5 µM (inactive) | GI50 [31]: 45.5 µM (inactive) | GI50 [32]: 33.8 µM (inactive) | GI50 [33]: 81.3 µM (inactive) | GI50 [34]: > 100 µM (inactive) | GI50 [35]: > 100 µM (inactive) | GI50 [36]: 56.8 µM (inactive) | GI50 [37]: 49 µM (inactive) | GI50 [38]: > 100 µM (inactive) | GI50 [40]: 23.6 µM (inactive) | GI50 [41]: > 100 µM (inactive) | GI50 [42]: 80.4 µM (inactive) | GI50 [43]: > 100 µM (inactive) | GI50 [44]: > 100 µM (inactive) | GI50 [45]: 47 µM (inactive) | GI50 [46]: > 100 µM (inactive) | GI50 [47]: 49.4 µM (inactive) | GI50 [48]: 84.7 µM (inactive) | GI50 [49]: 41.6 µM (inactive) | GI50 [58]: 22.7 µM (inactive) | GI50 [50]: 39.7 µM (inactive) | GI50 [51]: 64.9 µM (inactive) | GI50 [52]: > 100 µM (inactive) | GI50 [53]: > 100 µM (inactive) | GI50 [54]: 60.3 µM (inactive) | GI50 [55]: 61.2 µM (inactive) | GI50 [59]: 71.8 µM (inactive)

CC(SC(=S)N(C)C)C(=O)Nc1nnc(-c2ccc(Cl)cc2)o1 (stereo unspecified)
GI50 [1]: 20.8 µM (inactive) | GI50 [2]: 42.4 µM (inactive) | GI50 [3]: 33.3 µM (inactive) | GI50 [4]: 36 µM (inactive) | GI50 [5]: 89.1 µM (inactive) | GI50 [8]: 33.3 µM (inactive) | GI50 [9]: 59.8 µM (inactive) | GI50 [11]: > 100 µM (inactive) | GI50 [12]: 28.8 µM (inactive) | GI50 [13]: 17.7 µM | GI50 [15]: 51.2 µM (inactive) | GI50 [16]: > 100 µM (inactive) | GI50 [17]: 24 µM (inactive) | GI50 [56]: > 100 µM (inactive) | GI50 [18]: 30.2 µM (inactive) | GI50 [19]: 14.3 µM (inactive) | GI50 [21]: 16.9 µM (inactive) | GI50 [22]: 37.1 µM (inactive) | GI50 [23]: 26.7 µM (inactive) | GI50 [24]: 44.6 µM (inactive) | GI50 [25]: 35.2 µM (inactive) | GI50 [27]: 3.24 µM (inactive) | GI50 [28]: 90.2 µM (inactive) | GI50 [29]: 40.6 µM (inactive) | GI50 [30]: 54.2 µM (inactive) | GI50 [31]: 35.8 µM (inactive) | GI50 [32]: 14.6 µM (inactive) | GI50 [33]: 19.6 µM (inactive) | GI50 [34]: 44.7 µM (inactive) | GI50 [35]: 56.4 µM (inactive) | GI50 [36]: 49.7 µM (inactive) | GI50 [37]: 35.9 µM (inactive) | GI50 [38]: 22.6 µM (inactive) | GI50 [39]: 80.7 µM (inactive) | GI50 [40]: 29 µM (inactive) | GI50 [42]: 59.7 µM (inactive) | GI50 [43]: 53 µM (inactive) | GI50 [44]: 30.8 µM (inactive) | GI50 [45]: 31.6 µM (inactive) | GI50 [46]: > 100 µM (inactive) | GI50 [47]: 33.7 µM (inactive) | GI50 [48]: 35.3 µM (inactive) | GI50 [49]: 41.5 µM (inactive) | GI50 [58]: 4.33 µM (inactive) | GI50 [50]: 34.7 µM (inactive) | GI50 [51]: 44.8 µM (inactive) | GI50 [52]: 80.2 µM (inactive) | GI50 [53]: 31 µM (inactive) | GI50 [54]: 65.9 µM (inactive) | GI50 [55]: 45.8 µM (inactive) | GI50 [59]: 20 µM (inactive)
